Source: the NIST ThermoML archive (doi:10.1021/je900210h)
Values joined by “and” are separate entries in the source; they are usually repeats but may differ in a detail not shown here. Identical values can stand only once.

Conditions: Fluid (supercritical or subcritical phases), Coaxial cylinder method

FCC(F)(F)F [1,1,1,2-tetrafluoroethane]
Conditions | thermal conductivity
379.09 K, 4452 kPa | 0.0625 W/m/K
379.09 K, 4460 kPa | 0.0627 W/m/K
379.09 K, 4464 kPa | 0.063 W/m/K
379.09 K, 4470 kPa | 0.063 W/m/K
379.09 K, 4475 kPa | 0.063 W/m/K
379.09 K, 4484 kPa | 0.063 W/m/K
379.09 K, 4500 kPa | 0.0627 W/m/K
379.1 K, 4331 kPa | 0.0441 W/m/K
379.17 K, 300 kPa | 0.02023 W/m/K
379.22 K, 4504 kPa | 0.0628 W/m/K
379.23 K, 4452 kPa | 0.0608 W/m/K
379.23 K, 4453 kPa | 0.0614 W/m/K
379.23 K, 4520 kPa | 0.062 W/m/K
379.23 K, 4530 kPa | 0.0615 W/m/K
379.24 K, 4540 kPa | 0.0609 W/m/K
379.24 K, 4547 kPa | 0.0606 W/m/K
379.24 K, 4560 kPa | 0.0601 W/m/K
379.24 K, 4570 kPa | 0.0599 W/m/K
379.25 K, 4442 kPa | 0.0593 W/m/K
379.25 K, 4600 kPa | 0.0591 W/m/K
379.25 K, 4620 kPa | 0.0587 W/m/K
379.25 K, 4642 kPa | 0.0584 W/m/K
379.26 K, 4431 kPa | 0.0573 W/m/K
379.26 K, 4662 kPa | 0.0579 W/m/K
379.26 K, 4680 kPa | 0.0577 W/m/K
379.26 K, 4703 kPa | 0.0575 W/m/K
379.26 K, 4739 kPa | 0.0573 W/m/K
379.26 K, 4766 kPa | 0.0573 W/m/K
379.26 K, 4806 kPa | 0.057 W/m/K
379.27 K, 4424 kPa | 0.0559 W/m/K
379.28 K, 4414 kPa | 0.0545 W/m/K
379.29 K, 4404 kPa | 0.053 W/m/K
379.3 K, 4396 kPa | 0.0516 W/m/K
379.32 K, 4386 kPa | 0.0501 W/m/K
379.33 K, 4376 kPa | 0.0487 W/m/K
379.34 K, 4369 kPa | 0.0478 W/m/K
379.36 K, 4355 kPa | 0.0462 W/m/K
379.37 K, 4346 kPa | 0.0453 W/m/K
379.39 K, 4330 kPa | 0.0437 W/m/K
379.4 K, 4309 kPa | 0.0422 W/m/K
379.4 K, 4317 kPa | 0.0427 W/m/K
379.4 K, 4838 kPa | 0.0567 W/m/K
379.4 K, 4888 kPa | 0.0562 W/m/K
379.41 K, 4932 kPa | 0.0558 W/m/K
379.41 K, 5000 kPa | 0.0554 W/m/K
379.41 K, 5051 kPa | 0.055 W/m/K
379.42 K, 4288 kPa | 0.0408 W/m/K
379.43 K, 150 kPa | 0.02035 W/m/K
379.43 K, 154 kPa | 0.0231 W/m/K
379.43 K, 4282 kPa | 0.0405 W/m/K
379.45 K, 4254 kPa | 0.0389 W/m/K
379.47 K, 4224 kPa | 0.0376 W/m/K
379.48 K, 4200 kPa | 0.0367 W/m/K
379.5 K, 4165 kPa | 0.0355 W/m/K
379.5 K, 4175 kPa | 0.0358 W/m/K
379.72 K, 160 kPa | 0.01996 W/m/K
381.53 K, 4627 kPa | 0.0551 W/m/K
381.53 K, 4640 kPa | 0.0555 W/m/K
381.53 K, 4650 kPa | 0.056 W/m/K
381.53 K, 4660 kPa | 0.0562 W/m/K
381.53 K, 4670 kPa | 0.0565 W/m/K
381.53 K, 4680 kPa | 0.0565 W/m/K
381.54 K, 4700 kPa | 0.0562 W/m/K
381.54 K, 4760 kPa | 0.056 W/m/K
381.55 K, 4612 kPa | 0.0542 W/m/K
381.55 K, 4780 kPa | 0.0558 W/m/K
381.55 K, 4800 kPa | 0.0555 W/m/K
381.55 K, 4815 kPa | 0.0553 W/m/K
381.56 K, 4600 kPa | 0.0536 W/m/K
381.56 K, 4830 kPa | 0.0551 W/m/K
381.56 K, 4860 kPa | 0.0549 W/m/K
381.56 K, 4900 kPa | 0.0542 W/m/K
381.56 K, 4920 kPa | 0.0542 W/m/K
381.56 K, 4950 kPa | 0.0543 W/m/K
381.56 K, 4982 kPa | 0.0543 W/m/K
381.56 K, 5016 kPa | 0.0543 W/m/K
381.56 K, 5068 kPa | 0.0543 W/m/K
381.57 K, 5092 kPa | 0.0539 W/m/K
381.57 K, 5125 kPa | 0.0538 W/m/K
381.57 K, 5136 kPa | 0.0538 W/m/K
381.57 K, 5169 kPa | 0.0536 W/m/K
381.57 K, 5201 kPa | 0.0536 W/m/K
381.58 K, 4569 kPa | 0.0518 W/m/K
381.6 K, 4530 kPa | 0.0495 W/m/K
381.61 K, 4516 kPa | 0.0483 W/m/K
381.61 K, 4520 kPa | 0.0487 W/m/K
381.61 K, 4525 kPa | 0.049 W/m/K
381.62 K, 4510 kPa | 0.0478 W/m/K
381.63 K, 4490 kPa | 0.0464 W/m/K
381.63 K, 4500 kPa | 0.0472 W/m/K and 0.0468 W/m/K
385.18 K, 4940 kPa | 0.0522 W/m/K
